Results reported in US5861414A, “Piperidineacetic acid derivatives useful as fibrinogen antagonist agent” (priority 1994, dated 1999).
pIC50: −log10 of the molar value. Structures can show the parent of a compound that is named as a salt. Where two headings read alike, the source gives them in different places.

Tested on: human washed and resuspended platelets (HRP)
Assay: Inhibition of U-46619-induced platelet aggregation in washed human platelets (turbidometric, Born-type aggregometer)
Type: cell-based
Settings: read-out: IC50, concentration of the compound required to inhibit platelet aggregation by 50%
Experimental: Inhibition of platelet aggregation by compounds of the invention was determined according to the following procedure. […] The blood was treated with aspirin (0.1 mM) and prostacyclin (0.06 μM) prior to centrifugation (1400 g, 4 minutes, 20° C.). The supernatant platelet-rich plasma (PRP) was isolated and further centrifuged (1400 g, 10 minutes, 20° C.) to sediment the platelets. […] This platelet suspension was centrifuged (1400 g, 8 minutes, 20° C.) and the resultant platelet pellet was resuspended into the physiological salt solution adjusted to pH 7.4. The resultant washed-platelet preparation was diluted to give a final platelet count of […]. […] Platelet aggregation was quantified using a turbidometric method.

[1] = Homo sapiens, Platelet, washed human platelets, 37° C, 5 minutes pre-incubation, agonist 1 μM U-46619, fibrinogen 0.5 mg/ml

| SMILES | pIC50 [1] | also measured |
| --- | --- | --- |
| O=C(O)CN1CCC(c2nn(Cc3ccc(F)cc3)c3cc(/C=C/C4CCNCC4)ccc23)CC1 [1 (xiii), {4-[1-(4-Fluoro-benzyl)-6-(2-piperidin-4-yl-(E)-vinyl)-1H-indazol-3-yl]-piperidin-1-yl}-acetic acid trifluoroacetate] | 6.90 |  |
| O=C(O)CN1CCC(c2n[nH]c3cc(/C=C/C4CCNCC4)ccc23)CC1 [2 (ii), {4-[6-(2-Piperidin-4-yl-(E)-vinyl)-1H-indazol-3-yl]-piperidin-1-yl}-aceticacid trifluoroacetate] | 7.04 |  |
| O=C(O)CN1CCC(c2n[nH]c3cc(/C=C/C4CCNCC4)ccc23)CC1 [2 (iv), {4-[6-(2-Piperidin-4-yl-(E)-vinyl)-1H-indazol-3-yl]-piperidin-1-yl}-aceticacid, hydrochloride hydrate] |  | pIC50 (Homo sapiens, Platelet): 7.17 |
| O=C(O)CN1CCC(c2nn(Cc3ccc(Cl)c(Cl)c3)c3cc(/C=C/C4CCNCC4)ccc23)CC1 [3 (ii), {4-[1-(3,4-Dichloro-benzyl)-6-(2-piperidin-4-yl-(E)-vinyl)-1H-indazol-3-yl]-piperidin-1-yl}-acetic acid trifluoroacetate] | 7.13 |  |
| O=C(O)CN1CCC(c2nn(Cc3ccc(Cl)cc3)c3cc(/C=C/C4CCNCC4)ccc23)CC1 [4 (ii), (4-{1-(4-Chloro-benzyl)-6-[2-piperidin-4-yl-(E)-vinyl]-1H-indazol-3-yl}-piperidin-1-yl)-acetic acid trifluoroacetate] | 7.14 |  |
| O=C(O)CN1CCC(c2nn(Cc3ccc(Cl)cc3)c3cc(CCC4CCNCC4)ccc23)CC1 [5 (iii), {4-[1-(4-Chloro-benzyl)-6-(2piperidin-4-yl-ethyl)-1H-indazol-3-yl-piperidin-1-yl}-acetic acid trifluoroacetate] | 7.10 |  |
| O=C(O)CN1CCC(c2nn(Cc3ccc(F)cc3)c3cc(/C=C/C4CCNCC4)ccc23)CC1 [6 (ii), {4-[1-(4-Fluoro-benzyl)-6-(2-piperidin-4-yl-(E)-vinyl)-1H-indazol-3-yl]-piperidin-1-yl}-acetic acid hydrochloride] |  | pIC50 (washed human platelets, 37° C, 5 minutes pre-incubation, agonist 1 μM U-46619, fibrinogen 0.5 mg/ml, hydrochloride): 6.96 |
| O=C(O)CN1CCC(c2nn(Cc3ccccc3)c3cc(/C=C/C4CCNCC4)ccc23)CC1 [7 (ii), {4-[1-Benzyl-6-(2-piperidin-4-yl-(E)-vinyl)-1H-indazol-3-yl]-piperidin-1-yl}-acetic acid trifluoroacetate] | 6.97 |  |
